≈ marks a conversion by molar mass, not a printed value.

Drawing on patent US9060515B2, “Heterocyclic urea compounds” (BIOTA EUROPE LTD, priority 2011, dated 2015), this text covers MIC for 39 compounds.

The first assay has as its system S. aureus (ATCC 29213). Nature of the assay: Antibacterial susceptibility testing (MIC, broth microdilution or agar dilution), S. aureus. It counts as cell-based. The settings on record: Staphylococcus aureus, ATCC29213; read-out: S. aureus (ATCC 29213) minimal inhibitory concentration (MIC). On the procedure:
(§1) Compounds of the invention were tested for antimicrobial activity by susceptibility testing in liquid or on solid media. MICs for compounds against each strain were determined by the broth microdilution or agar dilution method according to the guidelines of the Clinical Laboratories and Standards Institute, formerly the National Committee for Clinical Laboratory Standards (Clinical Laboratories and Standards Institute. Methods for Dilution Antimicrobial Susceptibility Tests for Bacteria That Grow Aerobically; Approved Standard—Seventh Edition. Document M7-A7. CLSI, Wayne, Pa., 2006; Clinical Laboratories and Standards Institute. The Gram positive bacterial strains tested include S. aureus (Staphylococcus aureus (Isolate ID ATCC 29213)), E. faecalis (Enterococcus faecalis (Isolate ID ATCC 29212)) and S. pyogenes (Streptococcus pyogenes (Isolate ID ATCC 51339)). The Gram negative bacterial strains tested include H. influenzae (Haemophilus influenzae (Isolate ID ATCC 49247)).
`CCNC(=O)Nc1cc(Nc2ccccc2)c(C(=O)Nc2ccc(C#CCO)cc2)cn1` [Compound 135, 6-[(Ethylcarbamoyl)amino]-N-[4-(3-hydroxyprop-1-yn-1-yl)phenyl]-4-(phenylamino)pyridine-3-carboxamide]: the MIC was not above 1 µg/mL.
On the same count and under the same terms, next, `CCNC(=O)Nc1cc(Nc2ccccc2)c(C(=O)Nc2ccc(C(F)(F)F)cc2)cn1` [Compound 47, 6-(3-ethylureido)-4-(phenylamino)-N-(4-(trifluoromethyl)phenyl)nicotinamide]: 4 µg/mL (≈ 9.02 µM); `CCNC(=O)Nc1cc(Nc2cncc(OC)c2)c(C(=O)Nc2cccnc2)cn1` [Compound 174]: 4 µg/mL (≈ 9.82 µM).
Turning to `CCNC(=O)Nc1cc(Nc2ccccc2)c(C(=O)Nc2cccc(OC)c2)cn1` [Compound 32, 6-(3-ethylureido)-N-(3-methoxyphenyl)-4-(phenylamino)nicotinamide], the MIC amounted to 4 µg/mL (≈ 9.87 µM).
Turning to `CCNC(=O)Nc1cc(Nc2ccc(Cl)cc2)c(C(=O)Nc2ccc(N=[N+]=[N-])cc2)cn1` [Compound 132, N-(4-azidophenyl)-4-[(4-chlorophenyl)amino]-6-[(ethylcarbamoyl)amino]pyridine-3-carboxamide], the MIC amounted to 8 µg/mL (≈ 17.7 µM).
Take `CCNC(=O)Nc1cc(Nc2ccccc2)c(C(N)=O)cn1` [Compound 61, 6-(3-Ethylureido)-4-(phenylamino)nicotinamide]: the MIC was found to be 32 µg/mL (≈ 107 µM).
The same measure, in the same setting: next, `CCNC(=O)Nc1cc(Nc2ccc(CC(=O)OCC)cc2)c(C(=O)Nc2cccnc2)cn1` [Compound 110, ethyl 2-(4-(2-(3-ethylureido)-5-(pyridin-3-ylcarbamoyl)pyridin-4-ylamino)phenyl)acetate]: 4 µg/mL (≈ 8.65 µM); `CCNC(=O)Nc1cc(Nc2ccccc2)c(C(=O)Nc2cc(C)cc(F)c2)cn1` [Compound 93, 6-(3-ethylureido)-N-(3-fluoro-5-methylphenyl)-4-(phenylamino)nicotinamide]: not above 1 µg/mL; `CCNC(=O)Nc1cc(Nc2ccc(C)cc2)c(C(=O)Nc2cccnc2)cn1` [Compound 140]: not above 1 µg/mL.
With `CCNC(=O)Nc1cc(Nc2ccnc(C)c2)c(C(=O)Nc2cccnc2)cn1` [Compound 162], the MIC amounted to 8 µg/mL (≈ 20.4 µM).
On to `CCNC(=O)Nc1cc(Nc2ccc(Cl)cc2)c(C(=O)Nc2ccc(-n3cc(CN)nn3)cc2)cn1` [Compound 194, N-{4-[4-(aminomethyl)-1H-1,2,3-triazol-1-yl]phenyl}-4-[(4-chlorophenyl)amino]-6-[(ethylcarbamoyl)amino]pyridine-3-carboxamide], for which the MIC was 8 µg/mL (≈ 15.8 µM).
Consider `CCNC(=O)Nc1cc(Nc2ccc(OC)nc2)c(C(=O)Nc2cccnc2)cn1` [Compound 145], for which the MIC worked out at 4 µg/mL (≈ 9.82 µM).
As to `CCNC(=O)Nc1cc(Nc2ccc(Cl)cc2)c(C(=O)Nc2cnc(NC3(C(=O)O)CCC3)nc2)cn1` [Compound 165, 1-({5-[({4-[(4-chlorophenyl)amino]-6-[(ethylcarbamoyl)amino]pyridin-3-yl}carbonyl)amino]pyrimidin-2-yl}amino) cyclobutanecarboxylic acid], the MIC was determined as 16 µg/mL (≈ 30.5 µM).
On the same count and under the same terms, then `CCNC(=O)Nc1cc(Nc2cc(F)cc(F)c2)c(C(=O)Nc2ccc(Cc3nnn[nH]3)cc2)cn1` [Compound 209, 4-(3,5-difluoroanilino)-6-(ethylcarbamoylamino)-N-[4-(1H-tetrazol-5-ylmethyl)phenyl]pyridine-3-carboxamide], with not above 1 µg/mL.
For the compound `CCNC(=O)Nc1cc(Nc2cccc(F)c2)c(C(=O)Nc2cccnc2)cn1` [Compound 143], the MIC is not above 1 µg/mL.
Same read-out and setting: next, `CCNC(=O)Nc1cc(Nc2ccc(C(F)(F)F)cc2)c(C(=O)Nc2cccnc2)cn1` [Compound 142]: 2 µg/mL (≈ 4.5 µM); `CCNC(=O)Nc1cc(Nc2cncc(C)c2)c(C(=O)Nc2cccnc2)cn1` [Compound 157]: 8 µg/mL (≈ 20.4 µM); `CCNC(=O)Nc1cc(Nc2cccnc2)c(C(=O)Nc2ccc(NCC3(C(=O)OC)CCC3)nc2)cn1` [Compound 156, methyl 1-[({5-[({6-[(ethylcarbamoyl)amino]-4-(pyridin-3-ylamino)pyridin-3-yl}carbonyl)amino]pyridin-2-yl}amino)methyl]cyclobutane carboxylate]: 16 µg/mL (≈ 30.9 µM).
Still for that read-out and setting: next, `CCNC(=O)Nc1cc(Nc2ccc(F)cc2)c(C(=O)Nc2cccnc2)cn1` [Compound 139]: not above 1 µg/mL; `CCNC(=O)Nc1cc(Nc2ccc(OC)cc2)c(C(=O)Nc2ccc(CC(C)(C)C(=O)O)cc2)cn1` [Compound 208, 3-{4-[({6-[(ethylcarbamoyl)amino]-4-[(4-methoxyphenyl)amino]pyridin-3-yl}carbonyl)amino]phenyl}-2,2-dimethylpropanoic acid]: not above 1 µg/mL.
`CCNC(=O)Nc1cc(Nc2cccnc2)c(C(=O)Nc2ccc(CCC(=O)OC)cc2)cn1` [Compound 147]: the MIC is 4 µg/mL (≈ 8.65 µM).
As to `CCNC(=O)Nc1cc(Nc2ccccc2F)c(C(=O)Nc2cccnc2)cn1` [Compound 144], the MIC is not above 1 µg/mL.
Same read-out and setting: then `CCNC(=O)Nc1cc(Nc2ccc(Cl)cc2)c(C(=O)Nc2ccc(C#CC(C)(C)O)cc2)cn1` [Compound 185, 4-[(4-chlorophenyl)amino]-6-[(ethylcarbamoyl)amino]-N-[4-(3-hydroxy-3-methylbut-1-yn-1-yl)phenyl]pyridine-3-carboxamide], with 8 µg/mL (≈ 16.3 µM).
The same measure, in the same setting: then `CNC(=O)Nc1cc(Nc2ccccc2)c(C(=O)Nc2ccc(CCC(=O)O)cc2)cn1` [Compound 186, 3-{4-[({6-[(methylcarbamoyl)amino]-4-(phenylamino)pyridin-3-yl}carbonyl)amino]phenyl}propanoic acid], with 32 µg/mL (≈ 73.8 µM).
Still for that read-out and setting: next, `CCNC(=O)Nc1cc(Nc2ccc(C)nc2)c(C(=O)Nc2cccnc2)cn1` [Compound 167]: 16 µg/mL (≈ 40.9 µM); `CCNC(=O)Nc1cc(Nc2cccnc2)c(C(=O)Nc2ccc(CCC(=O)O)cc2)cn1` [Compound 153, 3-{4-[({6-[(ethylcarbamoyl)ami-no]-4-(pyridin-3-ylamino)pyridin-3-yl}carbonyl)amino]phenyl}pro-opanoic acid]: 16 µg/mL (≈ 35.7 µM).
Take `CCNC(=O)Nc1cc(Nc2cccnc2)c(C(=O)Nc2ccc(CC(C)(C)C(=O)OC)cc2)cn1` [Compound 170, methyl 3-{4-[({6-[(ethylcarbamoyl)amino]-4-(pyridin-3-ylamino)pyridin-3-yl}carbonyl)amino]phenyl}-2,2-dimethylpropanoate]: the MIC is not above 1 µg/mL.
On the same count and under the same terms, then `CCNC(=O)Nc1cc(Nc2cccc(C(F)(F)F)c2)c(C(=O)Nc2cccnc2)cn1` [Compound 141], with not above 1 µg/mL; and `CCNC(=O)Nc1cc(Nc2cccnc2)c(C(=O)Nc2ccc([C@@H]3C[C@H]3C(=O)O)cc2)cn1` [Compound 193], with 32 µg/mL (≈ 69.5 µM).

Another assay relates to S. pyogenes (ATCC 51339). Nature of the assay: Antibacterial susceptibility testing (MIC, broth microdilution or agar dilution), S. pyogenes. The settings on record: Streptococcus pyogenes, ATCC51339; read-out: S. pyogenes (ATCC 51339) minimal inhibitory concentration (MIC). The class given is cell-based. On the procedure: as §1
For orientation: Dilution methods test growth across graded concentrations, often in twofold steps.
For `CCNC(=O)Nc1cc(Nc2ccccc2)c(C(=O)Nc2ccc(C(F)(F)F)cc2)cn1` [Compound 47, 6-(3-ethylureido)-4-(phenylamino)-N-(4-(trifluoromethyl)phenyl)nicotinamide], the MIC worked out at 32 µg/mL (≈ 72.2 µM).
Regarding `CCNC(=O)Nc1cc(Nc2cccc(C(=O)O)c2)c(C(=O)Nc2cccnc2)cn1` [Compound 87, 3-(2-(3-ethylureido)-5-(pyridin-3-ylcarbamoyl)pyridin-4-ylamino)benzoic acid], the MIC is 8 µg/mL (≈ 19 µM).
In the case of `CCNC(=O)Nc1cc(Nc2ccccc2)c(C(=O)Nc2cccc(OC)c2)cn1` [Compound 32, 6-(3-ethylureido)-N-(3-methoxyphenyl)-4-(phenylamino)nicotinamide], the MIC was found to be 8 µg/mL (≈ 19.7 µM).
On the same count and under the same terms, next, `CCNC(=O)Nc1cc(Nc2ccccc2)c(C(N)=O)cn1` [Compound 61, 6-(3-Ethylureido)-4-(phenylamino)nicotinamide]: 16 µg/mL (≈ 53.5 µM); `CCNC(=O)Nc1cc(Nc2ccc(CC(=O)OCC)cc2)c(C(=O)Nc2cccnc2)cn1` [Compound 110, ethyl 2-(4-(2-(3-ethylureido)-5-(pyridin-3-ylcarbamoyl)pyridin-4-ylamino)phenyl)acetate]: 4 µg/mL (≈ 8.65 µM); `CCNC(=O)Nc1cc(Nc2ccccc2)c(C(=O)Nc2cc(C)cc(F)c2)cn1` [Compound 93, 6-(3-ethylureido)-N-(3-fluoro-5-methylphenyl)-4-(phenylamino)nicotinamide]: 2 µg/mL (≈ 4.91 µM).
In the case of `CCNC(=O)Nc1cc(Nc2ccc(C(=O)O)cc2)c(C(=O)Nc2cccnc2)cn1` [Compound 16, 4-(2-(3-Ethylureido)-5-(pyridin-3-ylcarbamoyl)pyridin-4-ylamino)benzoic acid], the MIC was not above 1 µg/mL.
Regarding `CCNC(=O)Nc1cc(Nc2ccccc2)c(C(=O)Nc2c(C)noc2C)cn1` [Compound 50, N-(3,5-dimethylisoxazol-4-yl)-6-(3-ethylureido)-4-(phenylamino)nicotinamide], the MIC is 4 µg/mL (≈ 10.1 µM).
Consider `CCNC(=O)Nc1cc(Nc2ccccc2)c(C(=O)Nc2cncc(C(=O)O)c2)cn1` [Compound 84, 5-(6-(3-ethylureido)-4-(phenylamino)nicotinamido)nicotinic acid], for which the MIC was determined as 16 µg/mL (≈ 38.1 µM).
The same measure, in the same setting: next, `CCNC(=O)Nc1cc(Nc2ccc(C(=O)N(C)C)cc2)c(C(=O)Nc2cccnc2)cn1` [Compound 124, 4-(4-(dimethylcarbamoyl)phenylamino)-6-(3-ethylureido)-N-(pyridin-3-yl)nicotinamide]: 4 µg/mL (≈ 8.94 µM); `CCNC(=O)Nc1cc(Nc2ccc(=O)n(C)c2)c(C(=O)Nc2cccnc2)cn1` [Compound 108, 6-(3-ethylureido)-4-(1-methyl-6-oxo-1,6-dihydropyridin-3-ylamino)-N-(pyridin-3-yl)nicotinamide]: 16 µg/mL (≈ 39.3 µM).
On the same count and under the same terms, next, `CCNC(=O)Nc1cc(Nc2ccc(C(=O)NC)cc2)c(C(=O)Nc2cccnc2)cn1` [Compound 126, 6-(3-ethylureido)-4-(4-(methylcarbamoyl)phenylamino)-N-(pyridin-3-yl)nicotinamide]: 2 µg/mL (≈ 4.61 µM).
As for `CCNC(=O)Nc1cc(Nc2ccc(C(N)=O)cc2)c(C(=O)Nc2cccnc2)cn1` [Compound 125, 4-(4-carbamoylphenylamino)-6-(3-ethylureido)-N-(pyridin-3-yl)nicotinamide], the MIC was not above 1 µg/mL.
As for `CCNC(=O)Nc1cc(Nc2ccccc2)c(C(=O)Nc2ccnnc2)cn1` [Compound 64, 6-(3-ethylureido)-4-(phenylamino)-N-(pyridazin-4-yl)nicotinamide], the MIC was not above 1 µg/mL.
With `CCNC(=O)Nc1cc(Nc2ccc(CC(=O)O)cc2)c(C(=O)Nc2cccnc2)cn1` [Compound 114, 2-(4-(2-(3-ethylureido)-5-(pyridin-3-ylcarbamoyl)pyridin-4-ylamino)phenyl)acetic acid], the MIC amounted to 8 µg/mL (≈ 18.4 µM).
